Test results as given in US20250144067A1, “PERSONALIZED STARVATION THERAPY FOR CANCER” (Faeth Therapeutics, Inc., priority 2021, published 2025).
Where a name gives a salt, the structure may show the parent alone. Read-outs that look alike come from different tables or passages of the source.

Key:
[1] = test system: NCI-H292 lung cancer cells; assay: FDA drug screening, complete media vs cholesterol-free media with simvastatin (TABLE 2); format: cell-based, human
[2] = test system: NCI-H292 lung cancer cells; assay: FDA drug screening, complete media vs cholesterol-free media without statin (TABLE 1); format: cell-based, human
[3] = Complete minus Cholesterol-free, […]
[4] = NCI-H292 cells, FDA drug library screen, cholesterol-free media without statin
[5] = NCI-H292 cells, FDA drug library screen, complete media
[6] = NCI-H292 cells, drug in cholesterol-free media with simvastatin 0.04 μM
[7] = NCI-H292 cells, drug in complete media
[8] = complete media vs cholesterol-free media + simvastatin (0.04 μM), >0 enhanced anti-cancer activity, about 0 neutral, <0 antagonist
[9] = Complete minus Cholesterol-free, >0 enhanced anti-cancer activity, about 0 neutral, <0 antagonist
[10] = NCI-H292 cells, cholesterol-free media without statin
[11] = Complete minus Cholesterol-free, greater than 0 enhanced anti-cancer activity, about 0 neutral, below 0 antagonist
[12] = NCI-H292 cells, cholesterol-free media with simvastatin 0.04 μM, cell growth value in FDA drug screen
[13] = complete media minus cholesterol-free media + simvastatin, >0 enhanced anti-cancer activity, about 0 neutral, <0 antagonist
[14] = NCI-H292 cells, FDA drug library screen, cholesterol-free media with simvastatin 0.04 μM
[15] = NCI-H292 cells, cholesterol-free media without statin, FDA drug library screen
[16] = NCI-H292 cells, complete media, FDA drug library screen
[17] = Complete minus Cholesterol-free, greater than 0 enhanced anti-cancer activity, about 0 neutral, below 0 antagonists
[18] = NCI-H292 cells in cholesterol-free media without statin
[19] = NCI-H292 cells in complete media

## CN(C)c1cc(NC(=O)CNC(C)(C)C)c(O)c2c1C[C@H]1C[C@H]3[C@H](N(C)C)C(O)=C(C(N)=O)C(=O)[C@@]3(O)C(O)=C1C2=O [Tigecycline]
[1]; NCI-H292 cells, FDA library drug in cholesterol-free media with simvastatin 0.04 μM
  Cholesterol-free media + simvastatin (0.04 μM): 1.179
[1]; NCI-H292 cells, FDA library drug in complete media
  Complete Media: 0.8929
[1]; complete media vs cholesterol-free media + simvastatin (0.04 μM), […]
  Difference: −0.29
[2]; [3]
  Difference: −0.13
[2]; [4]
  Cholesterol-free: 1.231
[2]; [5]
  Complete: 1.106

## CCN(CC)CCOc1ccc2c(c1)C(=O)c1cc(OCCN(CC)CC)ccc1-2 [Tilorone (dihydrochloride)]
[1]; [6]
  Cholesterol-free media + simvastatin (0.04 μM): 1.099
[1]; [7]
  Complete Media: 0.8748
[1]; [8]
  Difference: −0.22
[2]; [9]
  Difference: −0.30
[2]; [10]
  Cholesterol-free: 1.404
[2]; NCI-H292 cells, complete media
  Complete: 1.104

## CCS(=O)(=O)CCn1c([N+](=O)[O-])cnc1C [Tinidazole]
[1]; [6]
  Cholesterol-free media + simvastatin (0.04 μM): 0.8398
[1]; [7]
  Complete Media: 0.6611
[1]; [8]
  Difference: −0.18
[2]; [11]
  Difference: −0.13
[2]; [4]
  Cholesterol-free: 1.121
[2]; [5]
  Complete: 0.9876

## CCOC(=O)c1c(N)sc2c1CCN(Cc1ccccc1)C2 [Tinoridine hydrochloride]
[1]; [12]
  Cholesterol-free media + simvastatin (0.04 μM): 1.034
[1]; NCI-H292 cells, complete media, cell growth value in FDA drug screen
  Complete Media: 1.059
[1]; [13]
  Difference: 0.03
[2]; [11]
  Difference: −0.11
[2]; [4]
  Cholesterol-free: 1.153
[2]; [5]
  Complete: 1.039

## Clc1ccc(C(Cn2ccnc2)OCc2ccsc2Cl)c(Cl)c1 (stereo not shown) [Tioconazole]
[1]; [14]
  Cholesterol-free media + simvastatin (0.04 μM): 0.669
[1]; [5]
  Complete Media: 0.9672
[1]; [13]
  Difference: 0.30
[2]; [9]
  Difference: −0.27
[2]; [10]
  Cholesterol-free: 1.207
[2]; NCI-H292 cells, complete media
  Complete: 0.9413

## CC(S)C(=O)NCC(=O)O (stereo not shown) [Tiopronin]
[1]; [12]
  Cholesterol-free media + simvastatin (0.04 μM): 1.026
[1]; [13]
  Difference: 0.12
[2]; [9]
  Difference: −0.20
[2]; [10]
  Cholesterol-free: 0.9241
[2]; NCI-H292 cells, complete media
  Complete: 0.7208

## C[N+]1(C)[C@@H]2CC(OC(=O)C(O)(c3cccs3)c3cccs3)C[C@H]1[C@@H]1O[C@@H]12.[Br-] (stereo partly shown) [Tiotropium (Bromide)]
[1]
  Cholesterol-free media + simvastatin (0.04 μM): 2.468
  Complete Media: 1.196
  Difference: −1.27
[2]
  Cholesterol-free: 1.101
  Complete: 0.8685
  Difference: −0.23

## N=C1CCCN1Cc1nc(O)nc(O)c1Cl [Tipiracil (hydrochloride)]
[1]; [14]
  Cholesterol-free media + simvastatin (0.04 μM): 0.8843
[1]; [5]
  Complete Media: 1.03
[1]; [13]
  Difference: 0.15
[2]; [9]
  Difference: 0.03
[2]; [15]
  Cholesterol-free: 0.8754
[2]; [16]
  Complete: 0.9052

## CCC[C@@]1(CCc2ccccc2)CC(O)=C([C@H](CC)c2cccc(NS(=O)(=O)c3ccc(C(F)(F)F)cn3)c2)C(=O)O1 [Tipranavir]
[1]; NCI-H292 cells, cholesterol-free media with simvastatin 0.04 μM, FDA drug library screen (TABLE 2)
  Cholesterol-free media + simvastatin (0.04 μM): 1.22
[1]; NCI-H292 cells, complete media, FDA drug library screen (TABLE 2)
  Complete Media: 1.177
[1]; complete media minus cholesterol-free media + simvastatin (0.04 μM), […]
  Difference: −0.04
[2]; [3]
  Difference: −0.27
[2]; [10]
  Cholesterol-free: 0.9401
[2]; NCI-H292 cells, complete media
  Complete: 0.6703

## O=C(O)Cc1cc(I)c(Oc2ccc(O)c(I)c2)c(I)c1 [Tiratricol]
[1]; [14]
  Cholesterol-free media + simvastatin (0.04 μM): 0.7173
[1]; [13]
  Difference: 0.43
[2]; [17]
  Difference: −0.55
[2]; [18]
  Cholesterol-free: 1.869
[2]; [19]
  Complete: 1.318

## CCCCS(=O)(=O)N[C@@H](Cc1ccc(OCCCCC2CCNCC2)cc1)C(=O)O [Tirofiban (hydrochloride monohydrate)]
[1]; [14]
  Cholesterol-free media + simvastatin (0.04 μM): 1.824
[1]; [5]
  Complete Media: 1.693
[1]; [8]
  Difference: −0.13
[2]; [17]
  Difference: −0.96
[2]; [18]
  Cholesterol-free: 1.842
[2]; [19]
  Complete: 0.8788

## COc1cc2nccc(Oc3ccc(NC(=O)Nc4cc(C)on4)c(Cl)c3)c2cc1OC [Tivozanib]
[1]; [14]
  Cholesterol-free media + simvastatin (0.04 μM): 0.868
[1]; [5]
  Complete Media: 1.06
[1]; [13]
  Difference: 0.19
[2]; [10]
  Cholesterol-free: 1.298
[2]; NCI-H292 cells, complete media
  Complete: 0.868
[2]; complete vs cholesterol-free media, greater than 0 enhanced anti-cancer activity, about 0 neutral, below 0 antagonists
  Difference: −0.43

## Clc1ccc2nsnc2c1NC1=NCCN1 [Tizanidine (hydrochloride)]
[1]; [6]
  Cholesterol-free media + simvastatin (0.04 μM): 1.174
[1]; [7]
  Complete Media: 0.9856
[1]; [8]
  Difference: −0.19
[2]; [9]
  Difference: 0.02
[2]; [15]
  Cholesterol-free: 1.07
[2]; [16]
  Complete: 1.09
